Columns and labels:
SU-DHL-6 cells = assay: SU-DHL-6 cell proliferation test; assay type: cell-based, human; conditions: incubated for 14 days
Procedure: SU-DHL-6 cells are human B-cell lymphoma cell lines purchased from ATCC and cultured under the following conditions: RPMI-1640+10% FBS+1% double antibody in a 37° C., 5% CO2 incubator. The cells were plated in a 12-well plate, with a cell concentration of 1×10^5 cells/mL. After the cells were plated, the compounds at different concentrations were added and cultured in a 37° C., 5% CO2 incubator. The cells were counted every 3-4 days (Countstar automated cell counter), centrifuged to remove the supernatant, re-diluted to 1×10^5 cells/mL and plated, and then the compounds at different concentrations were further added. After the mixture was incubated for 14 days and the cells were counted, the test was terminated, and the IC50 values were calculated by using the Origen9.2 software.

EZH2 = EZH2 (Homo sapiens (Human), UniProt Q15910); assay: Test method for EZH2 enzyme activity; assay type: biochemical; conditions: H3K27(21-44) and [3H]-SAM
Outline: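 EZH2 (3 nM final) preincubated 15 min with compound in Tris-HCl pH 9.0 buffer, then H3K27(21-44) peptide and [3H]-SAM added (mixture at 200 nM and 100 nM) for 60 min at room temperature. Reaction quenched with cold SAM; flashplate scintillation read, inhibition normalized to controls and IC50 fitted.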

Sequence of EZH2 (Q15910 other isoform, or with tags, fused parts or gaps isoform Q15910-2): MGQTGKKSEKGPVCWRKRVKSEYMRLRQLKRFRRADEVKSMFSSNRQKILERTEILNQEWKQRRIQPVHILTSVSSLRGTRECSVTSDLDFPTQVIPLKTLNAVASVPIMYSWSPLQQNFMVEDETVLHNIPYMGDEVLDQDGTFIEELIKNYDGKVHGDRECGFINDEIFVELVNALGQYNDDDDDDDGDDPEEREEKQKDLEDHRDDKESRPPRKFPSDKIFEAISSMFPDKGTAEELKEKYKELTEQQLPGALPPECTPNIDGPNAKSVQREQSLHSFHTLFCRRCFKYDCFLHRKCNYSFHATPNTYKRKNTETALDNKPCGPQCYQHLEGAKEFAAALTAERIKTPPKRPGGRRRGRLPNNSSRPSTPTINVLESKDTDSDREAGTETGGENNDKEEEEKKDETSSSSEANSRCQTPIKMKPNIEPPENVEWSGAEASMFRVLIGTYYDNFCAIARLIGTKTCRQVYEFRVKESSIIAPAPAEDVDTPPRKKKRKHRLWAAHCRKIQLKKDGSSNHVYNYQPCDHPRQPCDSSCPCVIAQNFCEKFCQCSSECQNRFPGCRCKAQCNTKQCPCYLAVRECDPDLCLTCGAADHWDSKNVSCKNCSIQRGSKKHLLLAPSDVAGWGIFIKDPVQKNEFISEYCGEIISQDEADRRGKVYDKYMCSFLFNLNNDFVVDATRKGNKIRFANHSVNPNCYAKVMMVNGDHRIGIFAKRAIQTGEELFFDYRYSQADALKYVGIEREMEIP
Sequence of EZH2 (O75530 2-441 partner): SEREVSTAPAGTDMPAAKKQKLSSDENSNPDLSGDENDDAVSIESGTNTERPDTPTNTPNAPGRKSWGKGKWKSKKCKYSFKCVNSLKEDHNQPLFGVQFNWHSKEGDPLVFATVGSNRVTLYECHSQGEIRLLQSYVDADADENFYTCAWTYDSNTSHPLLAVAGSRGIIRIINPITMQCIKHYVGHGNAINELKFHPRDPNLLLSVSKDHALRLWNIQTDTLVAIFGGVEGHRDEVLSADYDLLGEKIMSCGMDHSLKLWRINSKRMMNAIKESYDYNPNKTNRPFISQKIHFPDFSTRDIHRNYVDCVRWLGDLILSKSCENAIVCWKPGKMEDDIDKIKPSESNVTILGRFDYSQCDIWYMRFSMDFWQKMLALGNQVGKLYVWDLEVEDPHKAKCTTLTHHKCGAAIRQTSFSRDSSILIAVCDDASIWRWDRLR
Sequence of EZH2 (Q15022 2-739 partner): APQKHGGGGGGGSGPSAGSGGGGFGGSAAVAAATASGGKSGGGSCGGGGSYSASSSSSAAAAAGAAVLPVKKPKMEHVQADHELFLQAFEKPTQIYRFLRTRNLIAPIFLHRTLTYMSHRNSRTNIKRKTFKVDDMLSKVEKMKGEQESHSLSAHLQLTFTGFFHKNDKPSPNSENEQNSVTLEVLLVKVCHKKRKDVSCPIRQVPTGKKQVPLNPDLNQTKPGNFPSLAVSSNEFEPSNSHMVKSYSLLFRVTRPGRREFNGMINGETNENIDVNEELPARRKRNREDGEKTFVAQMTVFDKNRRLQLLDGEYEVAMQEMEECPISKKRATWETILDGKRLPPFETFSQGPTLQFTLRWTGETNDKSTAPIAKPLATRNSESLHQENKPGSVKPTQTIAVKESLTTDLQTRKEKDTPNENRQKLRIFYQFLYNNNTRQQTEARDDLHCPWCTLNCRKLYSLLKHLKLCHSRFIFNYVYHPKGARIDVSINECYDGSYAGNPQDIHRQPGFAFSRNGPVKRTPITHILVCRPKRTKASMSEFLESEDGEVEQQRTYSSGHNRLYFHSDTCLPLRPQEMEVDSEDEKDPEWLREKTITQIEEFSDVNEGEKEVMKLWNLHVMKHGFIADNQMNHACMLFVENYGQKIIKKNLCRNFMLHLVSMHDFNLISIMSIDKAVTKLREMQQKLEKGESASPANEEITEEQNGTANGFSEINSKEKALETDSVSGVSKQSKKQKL
Sequence of EZH2 (Q09028 2-425 partner): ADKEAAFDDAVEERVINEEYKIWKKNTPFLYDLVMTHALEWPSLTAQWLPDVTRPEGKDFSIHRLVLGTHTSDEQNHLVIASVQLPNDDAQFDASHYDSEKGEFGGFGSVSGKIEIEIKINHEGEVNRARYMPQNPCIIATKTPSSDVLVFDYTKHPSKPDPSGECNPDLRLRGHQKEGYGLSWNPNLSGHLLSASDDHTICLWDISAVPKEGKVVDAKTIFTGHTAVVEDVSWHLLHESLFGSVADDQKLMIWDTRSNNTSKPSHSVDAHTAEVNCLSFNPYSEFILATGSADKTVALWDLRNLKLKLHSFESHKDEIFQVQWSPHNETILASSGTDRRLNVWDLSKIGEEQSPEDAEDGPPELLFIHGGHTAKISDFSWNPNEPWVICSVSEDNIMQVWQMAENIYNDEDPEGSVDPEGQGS
Sequence of EZH2 (Q6ZN18 whole entry partner): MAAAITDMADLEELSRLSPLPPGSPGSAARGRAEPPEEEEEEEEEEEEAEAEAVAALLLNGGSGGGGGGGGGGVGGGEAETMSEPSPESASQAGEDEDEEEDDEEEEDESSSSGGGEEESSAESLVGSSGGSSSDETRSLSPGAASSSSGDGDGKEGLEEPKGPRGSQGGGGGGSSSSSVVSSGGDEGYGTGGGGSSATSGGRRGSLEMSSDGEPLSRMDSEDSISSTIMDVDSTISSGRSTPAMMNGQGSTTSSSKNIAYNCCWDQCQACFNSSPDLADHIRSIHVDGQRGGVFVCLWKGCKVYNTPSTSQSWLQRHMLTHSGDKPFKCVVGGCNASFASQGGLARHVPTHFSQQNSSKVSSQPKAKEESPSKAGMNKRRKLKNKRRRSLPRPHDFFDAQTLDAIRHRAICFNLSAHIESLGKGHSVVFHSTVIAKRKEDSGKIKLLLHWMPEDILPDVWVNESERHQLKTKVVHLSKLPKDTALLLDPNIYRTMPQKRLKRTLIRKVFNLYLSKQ

| SMILES | IC50 (SU-DHL-6 cells) | IC50 (EZH2) | IC50 (SU-DHL-6 cells; Homo sapiens, 336 h) | IC50 (SU-DHL-6 cells; Homo sapiens, SU-DHL-6, 336 h) |
| --- | --- | --- | --- | --- |
| CSc1cc(C)[nH]c(=O)c1CNC(=O)c1cc(Cl)c2c(c1C)OC(C)([C@H]1CC[C@@H](N3CC(N4CCCC4)C3)CC1)O2 (single isomer, unassigned) [Compound 43, isomer 1, 7-chloro-2,4-dimethyl-N-((6-methyl-4-(methylthio)-2-oxo-1,2-dihydropyridin-3-yl)methyl)-2-(4-(3-(pyrrolidin-1-yl)azetidin-1-yl)cyclohexyl)benzo[d][1,3]dioxole-5-carboxamide] | – | 0.49 nM | 59.3 nM | – |
| CSc1cc(C)[nH]c(=O)c1CNC(=O)c1cc(Cl)c2c(c1C)OC(C)([C@H]1CC[C@@H](N3CC[Si](C)(C)CC3)CC1)O2 (single isomer, unassigned) [Compound 49, isomer 2, 7-chloro-2-(4-(4,4-dimethyl-1,4-azasilinan-1-yl)cyclohexyl)-2,4-dimethyl-N-((6-methyl-4-(methylthio)-2-oxo-1,2-dihydropyridin-3-yl)methyl)benzo[d][1,3]dioxole-5-carboxamide] | – | 0.32 nM | – | 38.9 nM |
| CSc1cc(C)[nH]c(=O)c1CNC(=O)c1cc(Cl)c2c(c1C)OC(C)([C@H]1CC[C@H](C(=O)N3CC(F)(F)C3)CC1)O2 (single isomer, unassigned; isomer 1) [Compound 47, isomer 1, 7-chloro-2-(4-(3,3-difluoroazetidine-1-carbonyl)cyclohexyl)-2,4-dimethyl-N-(di-deuterated(6-methyl-4-(methylthio)-2-oxo-1,2-dihydropyridin-3-yl)di-deuterated-methyl)benzo[d][1,3]dioxole-5-carboxamide] | 26.3 nM | 0.34 nM | – | – |

More lines, in order of falling IC50 (EZH2), values ahead:

| IC50 (SU-DHL-6 cells) | IC50 (EZH2) | SMILES | IC50 (SU-DHL-6 cells; Homo sapiens, 336 h) | IC50 (SU-DHL-6 cells; Homo sapiens, SU-DHL-6, 336 h) |
| --- | --- | --- | --- | --- |
| – | 0.57 nM | [2H]C([2H])(NC(=O)c1cc(Cl)c2c(c1C)OC(C)(C1CCC(NC3COC3)CC1)O2)c1c(SC)cc(C)[nH]c1=O (single isomer, unassigned) [Compound 59, isomer 1, 7-chloro-2,4-dimethyl-N-((6-methyl-4-(methylthio)-2-oxo-1,2-dihydropyridin-3-yl)methyl-d2)-2-(4-(oxetan-3-ylamino)cyclohexyl)benzo[d][1,3]dioxole-5-carboxamide] | – | 10 nM |
| 22 nM | 0.44 nM | CSc1cc(C)[nH]c(=O)c1CNC(=O)c1cc(Cl)c2c(c1C)OC(C)([C@H]1CC[C@H](N[C@H]3C[C@@H](F)C3)CC1)O2 (single isomer, unassigned) [Compound 41, isomer 2, 7-chloro-2-(4-((cis-3-fluorocyclobutyl)amino)cyclohexyl)-2,4-dimethyl-N-((6-methyl-4-(methylthio)-2-oxo-1,2-dihydropyridin-3-yl)methyl)benzo[d][1,3]dioxole-5-carboxamide] | – | – |
| 7.12 nM | 0.34 nM | [2H]C([2H])(NC(=O)c1cc(Cl)c2c(c1C)OC(C)([C@H]1CC[C@@H](N3CC4COCC4C3)CC1)O2)c1c(SC)cc(C)[nH]c1=O (single isomer, unassigned) [Compound 60, isomer 2, 7-chloro-2,4-dimethyl-N-((6-methyl-4-(methylthio)-2-oxo-1,2-dihydropyridin-3-yl)methyl-d2)-2-(4-(tetrahydro-1H-furo[3,4-c]pyrrol-5(3H)-yl)cyclohexyl)benzo[d][1,3]dioxole-5-carboxamide] | – | – |
| 58.6 nM | 0.18 nM | [2H]C([2H])(NC(=O)c1cc(Cl)c2c(c1C)OC(C)([C@H]1CC[C@@H](N3CC4COCC4C3)CC1)O2)c1c(SC)cc(C)[nH]c1=O (single isomer, unassigned) [Compound 60, isomer 1, 7-chloro-2,4-dimethyl-N-((6-methyl-4-(methylthio)-2-oxo-1,2-dihydropyridin-3-yl)methyl-d2)-2-(4-(tetrahydro-1H-furo[3,4-c]pyrrol-5(3H)-yl)cyclohexyl)benzo[d][1,3]dioxole-5-carboxamide] | – | – |

Source: US20230365541A1, “INHIBITOR OF ENHANCER OF ZESTE HOMOLOGUE 2, AND USE THEREOF” (HAISCO PHARMACEUTICALS PTE. LTD., priority 2020, published 2023)
